From US20150196668A1, “NANOMEDICINES FOR EARLY NERVE REPAIR” (Purdue Research Foundation, priority 2011, published 2015)

Tests used:
[1] = tested on: primary neuron and glia cells; assay: LDH release from glutamate challenged primary neuron and glia cells; assay type: cell-based
Experimental: FIGS. 36A-B show rescue of glutamate challenged primary neuron and glia cells as measured by LDH release. Studies with glutamate challenged primary neuron and glial cells show efficacy of GC-MP/MP and GCMP at high concentrations and GC-MP/MP at low concentrations (FIG. 36A). MPHS is beneficial at lower concentrations. LDH release from glutamate challenged (100 umol) primary neuron and glial cells treated with GC, GC-MP, GC-MP/MP (all 1 mg/ml) and MPHS (250 ug/ml) (FIG. 36B).

[2] = tested on: PC12 cell; assay: H2O2-induced PC12 cell injury model, apoptosis (Example 1); assay type: cell-based

SMILES	rescue of glutamate challenged cells, LDH release ([1]; 16 hours, GC, GC-MP, GC-MP/MP 1 mg/ml, MPHS 250 ug/ml, glutamate 100 umol)	rescue of glutamate challenged cells at low concentrations ([1]; FIG. 36A)	reducing cell apoptosis [2]
C[C@H]1C[C@@H]2[C@H]([C@@H](O)C[C@@]3(C)[C@H]2CC[C@]3(O)C(=O)COC(=O)CCC(=O)O)[C@@]2(C)C=CC(=O)C=C12 [MPHS, methylprednisolone hemisuccinate]	not significant	beneficial	–
COc1cc(/C=C/C(=O)CC(=O)/C=C/c2ccc(O)c(OC)c2)ccc1O [curcumin]	–	–	effective in reducing cell apoptosis
